Measurements published in US11827629B2, “CDGSH iron sulfur domain 2 activators and use thereof” (National Health Research Institutes, priority 2021, dated 2023).

Tested on: Cisd2 promoter with firefly luciferase reporter
Assay: Cisd2-luciferase reporter assay in HEK293-CISD2 cells
Type: cell-based
Conditions: Homo sapiens, 24 hours incubation, luciferase luminescence
Description: A typical in vitro screening method includes the following steps: (i) obtaining an initial level of Cisd2 in a batch of human embryonic kidney cells 293 (HEK-293 cells) that express Cisd2, (ii) treating the batch of HEK-293 cells with a compound of this invention, and (iii) analyzing the level of Cisd2 after the treatment, thereby determining the potency of the compound as a Cisd2 activator.
Compounds 1-109 were tested for increasing the level of Cisd2 in human embryonic kidney cells 293 (HEK293), a transfected cell line expressing Cisd2, using the Cisd2-luciferase reporter assay as follows.
The transfected HEK293 cells stably expressed Cisd2 promoter with firefly luciferase reporter (HEK293-CISD2). They were kept in Dulbecco's modified Eagle's medium (DMEM) (Gibco, New York, NY, USA). Culture medium was supplemented with 10% heat-inactivated fetal bovine serum (FBS), 2 mM L-Glutamine, 1 mM sodium pyruvate, 0.1% MEM Non-Essential Amino Acids, 1 ug/ml puromycin and 1% penicillin/streptomycin (HyClone, Logan, UT, USA). The cells were maintained at 37° C. in an incubator (Thermo Fisher Scientific, New York, NY, USA) with an atmosphere of 5% CO2. The stably transfected cells were seeded in 384-well plates at a density of 3×10^3 cells/well. After incubation with tested compounds at 37° C. for 24 hours, ONE-Glo™ Luciferase Assay System (Promega, Madison, WI, USA) was added at room temperature for 5 minutes to detect any luciferase activity. Luminescence intensity was registered using plate reader Victor^2V (PerkinElmer, Boston, MA, USA).
EC50 values in this table are presented in three classes, i.e., A: <1 μM, B: 1 μM-5 μM, and C: 5 μM-10 μM.

SMILES | EC50 [nM]
O=C(CS(=O)(=O)c1cc[n+]([O-])cc1)N1Cc2ccccc2C1 [Compound 44, 1-(1,3-dihydro-2H-isoindol-2-yl)-2-[(1-oxidopyridin-4-yl)sulfonyl]ethanone] | 5000 to 10000
O=C(CS(=O)(=O)c1ccccc1)N1Cc2ccccc2C1 [Compound 45, 1-(1,3-dihydro-2H-isoindol-2-yl)-2-(phenylsulfonyl)-ethanone] | < 1000
O=C(CS(=O)(=O)c1cccs1)N1Cc2ccccc2C1 [Compound 46, 1-(1,3-dihydro-2H-isoindol-2-yl)-2-(thiophen-2-ylsulfonyl)ethanone] | < 1000
O=C(CS(=O)(=O)Cc1ccccc1)N1Cc2ccccc2C1 [Compound 47, 2-(benzylsulfonyl)-1-(1,3-dihydro-2H-isoindol-2-yl)ethanone] | 5000 to 10000
O=C(N1Cc2ccccc2C1)C(F)(F)S(=O)(=O)c1nccs1 [Compound 53, 1-(1,3-dihydro-2H-isoindol-2-yl)-2,2-difluoro-2-(1,3-thiazol-2-ylsulfonyl)ethanone] | < 1000
O=C(N1Cc2ccccc2C1)C(F)(F)[S+]([O-])c1nccs1 (stereo not drawn) [Compound 54, 1-(1,3-dihydro-2H-isoindol-2-yl)-2,2-difluoro-2-(1,3-thiazol-2-ylsulfinyl)ethanone] | < 1000
O=C(CSc1ccccn1)N1Cc2ccc(O)cc2C1 [Compound 55, 1-(5-hydroxy-1,3-dihydro-2H-isoindol-2-yl)-2-(pyridin-2-ylsulfanyl)ethanone] | 5000 to 10000
O=C(CSc1cccc(F)c1)N1Cc2ccccc2C1 [Compound 56, 1-(1,3-dihydro-2H-isoindol-2-yl)-2-[(3-fluorophenyl)sulfanyl]ethanone] | < 1000
O=C(CSc1ccc(Cl)s1)N1Cc2ccccc2C1 [Compound 57, 2-[(5-chlorothiophen-2-yl)sulfanyl]-1-(1,3-dihydro-2H-isoindol-2-yl)ethanone] | < 1000
O=C(CSc1cc(F)ccc1F)N1Cc2ccccc2C1 [Compound 58, 2-[(2,5-difluorophenyl)sulfanyl]-1-(1,3-dihydro-2H-isoindol-2-yl)ethanone] | < 1000
O=C(CSc1ccc(F)cc1F)N1Cc2ccccc2C1 [Compound 60, 2-[(2,4-difluorophenyl)sulfanyl]-1-(1,3-dihydro-2H-isoindol-2-yl)ethanone] | < 1000
Nc1ccc(SCC(=O)N2Cc3ccccc3C2)cc1 [Compound 61, 2-[(4-aminophenyl)sulfanyl]-1-(1,3-dihydro-2H-isoindol-2-yl)ethanone] | < 1000
O=C(CSc1ccccc1F)N1Cc2ccc(F)cc2C1 [Compound 63, 1-(5-fluoro-1,3-dihydro-2H-isoindol-2-yl)-2-[(2-fluorophenyl)sulfanyl]ethanone] | < 1000
O=C(CSc1ccccc1)N1Cc2cccc(F)c2C1 [Compound 66, 1-(4-fluoro-1,3-dihydro-2H-isoindol-2-yl)-2-(phenylsulfanyl)ethanone] | < 1000
O=C(CSc1cccc(Cl)c1Cl)N1Cc2ccccc2C1 [Compound 68, 2-[(2,3-dichlorophenyl)sulfanyl]-1-(1,3-dihydro-2H-isoindol-2-yl)ethanone] | 1000 to 5000
Cc1nc(SCC(=O)N2Cc3ccccc3C2)sc1C [Compound 69, 1-(1,3-dihydro-2H-isoindol-2-yl)-2-[(4,5-dimethyl-1,3-thiazol-2-yl)sulfanyl]ethanone] | 1000 to 5000
Cn1ccc(SCC(=O)N2Cc3ccccc3C2)n1 [Compound 70, 1-(1,3-dihydro-2H-isoindol-2-yl)-2-[(1-methyl-1H-pyrazol-3-yl)sulfanyl]ethanone] | 1000 to 5000
O=C(CSc1ncccc1F)N1Cc2ccccc2C1 [Compound 71, 1-(1,3-dihydro-2H-isoindol-2-yl)-2-[(3-fluoropyridin-2-yl)sulfanyl]ethanone] | < 1000
O=C(CSc1ncco1)N1Cc2ccccc2C1 [Compound 72, 1-(1,3-dihydro-2H-isoindol-2-yl)-2-(1,3-oxazol-2-ylsulfanyl)ethanone] | < 1000
O=C(CSc1cccc(F)n1)N1Cc2ccccc2C1 [Compound 73, 1-(1,3-dihydro-2H-isoindol-2-yl)-2-[(6-fluoropyridin-2-yl)sulfanyl]ethanone] | 1000 to 5000
N#Cc1ccc(SCC(=O)N2Cc3ccccc3C2)s1 [Compound 74, 5-{[2-(1,3-dihydro-2H-isoindol-2-yl)-2-oxoethyl]sulfanyl}thiophene-2-carbonitrile] | < 1000
O=C(CSc1ccc(CO)s1)N1Cc2ccccc2C1 [Compound 75, 1-(1,3-dihydro-2H-isoindol-2-yl)-2-{[5-(hydroxymethyl)thiophen-2-yl]sulfanyl}ethanone] | < 1000
O=C(CSc1ccccn1)N1Cc2ccc(N3CCOCC3)cc2C1 [Compound 77, 1-[5-(morpholin-4-yl)-1,3-dihydro-2H-isoindol-2-yl]-2-(pyridin-2-ylsulfanyl)ethanone] | 5000 to 10000
O=C(CCSc1ccccc1Cl)N1Cc2ccccc2C1 [Compound 78, 3-[(2-chlorophenyl)sulfanyl]-1-(1,3-dihydro-2H-isoindol-2-yl)propan-1-one] | < 1000
O=C(CCSc1ccccc1)N1Cc2ccccc2C1 [Compound 79, 1-(1,3-dihydro-2H-isoindol-2-yl)-3-(phenylsulfanyl)propan-1-one] | < 1000
O=C(C[S+]([O-])c1ccc(Cl)s1)N1Cc2ccccc2C1 (stereo not drawn) [Compound 80, 2-[(5-chlorothiophen-2-yl)sulfinyl]-1-(1,3-dihydro-2H-isoindol-2-yl)ethanone] | 1000 to 5000
O=C(CC[S+]([O-])c1ccccc1Cl)N1Cc2ccccc2C1 (stereo not drawn) [Compound 83, 3-[(2-chlorophenyl)sulfinyl]-1-(1,3-dihydro-2H-isoindol-2-yl)propan-1-one] | < 1000
O=C(CC[S+]([O-])c1ccccc1)N1Cc2ccccc2C1 (stereo not drawn) [Compound 84, 1-(1,3-dihydro-2H-isoindol-2-yl)-3-(phenylsulfinyl)propan-1-one] | < 1000

Second part, the molecule after the results:

EC50 [nM] | SMILES
< 1000 | O=C(CCS(=O)(=O)c1nccs1)N1Cc2ccccc2C1 [Compound 48, 1-(1,3-dihydro-2H-isoindol-2-yl)-3-(1,3-thiazol-2-ylsulfonyl)propan-1-one]
1000 to 5000 | O=C(CCS(=O)(=O)c1ccccn1)N1Cc2ccc(F)cc2C1 [Compound 49, 1-(5-fluoro-1,3-dihydro-2H-isoindol-2-yl)-3-(pyridin-2-ylsulfonyl)propan-1-one]
< 1000 | O=C(N1Cc2ccc(F)cc2C1)C(F)(F)S(=O)(=O)c1ccccn1 [Compound 50, 2,2-difluoro-1-(5-fluoro-1,3-dihydro-2H-isoindol-2-yl)-2-(pyridin-2-ylsulfonyl)ethanone]
< 1000 | O=C1N[C@H]2[C@H](CS[C@H]2CCCCC(=O)Oc2ccc3c(c2)CN(C(=O)CS(=O)(=O)c2nccs2)C3)N1 [Compound 51, 2-[(1,3-thiazol-2-ylsulfonyl)acetyl]-2,3-dihydro-1H-isoindol-5-yl 5-[(3aS,4S,6aR)-2-oxohexahydro-1H-thieno[3,4-d]imidazol-4-yl]pentanoate]
< 1000 | O=C(N1Cc2ccccc2C1)C(F)(F)Sc1nccs1 [Compound 52, 1-(1,3-dihydro-2H-isoindol-2-yl)-2,2-difluoro-2-(1,3-thiazol-2-ylsulfanyl)ethanone]
< 1000 | O=C(CSc1ccccc1F)N1Cc2ccccc2C1 [Compound 59, 1-(1,3-dihydro-2H-isoindol-2-yl)-2-[(2-fluorophenyl)sulfanyl]ethanone]
5000 to 10000 | Cc1ccc(SCC(=O)N2Cc3ccccc3C2)cc1 [Compound 62, 1-(1,3-dihydro-2H-isoindol-2-yl)-2-[(4-methylphenyl)sulfanyl]ethanone]
< 1000 | O=C(CSc1ccccc1)N1Cc2ccc(F)cc2C1 [Compound 64, 1-(5-fluoro-1,3-dihydro-2H-isoindol-2-yl)-2-(phenylsulfanyl)ethanone]
< 1000 | O=C(CSc1ccccc1F)N1Cc2cc(F)c(F)cc2C1 [Compound 65, 1-(5,6-difluoro-1,3-dihydro-2H-isoindol-2-yl)-2-[(2-fluorophenyl)sulfanyl]ethanone]
< 1000 | O=C(CSc1ccccc1Cl)N1Cc2ccccc2C1 [Compound 67, 2-[(2-chlorophenyl)sulfanyl]-1-(1,3-dihydro-2H-isoindol-2-yl)ethanone]
1000 to 5000 | O=C(CSc1ccc(C(F)F)s1)N1Cc2ccccc2C1 [Compound 76, 2-{[5-(difluoromethyl)thiophen-2-yl]sulfanyl}-1-(1,3-dihydro-2H-isoindol-2-yl)ethanone]
< 1000 | O=C(C[S+]([O-])c1ccccc1Cl)N1Cc2ccccc2C1 (stereo not drawn) [Compound 81, 2-[(2-chlorophenyl)sulfinyl]-1-(1,3-dihydro-2H-isoindol-2-yl)ethanone]
< 1000 | O=C(C[S+]([O-])c1cccc(F)n1)N1Cc2ccccc2C1 (stereo not drawn) [Compound 82, 1-(1,3-dihydro-2H-isoindol-2-yl)-2-[(6-fluoropyridin-2-yl)sulfinyl]ethanone]
< 1000 | O=C(CS(=O)(=O)c1ccccn1)N1Cc2ccc(O)cc2C1 [Compound 85, 1-(5-hydroxy-1,3-dihydro-2H-isoindol-2-yl)-2-(pyridin-2-ylsulfonyl)ethanone]
